Measured values from US20110151534A1, “[…] ORGANIC COMPOUNDS USING R[…] […] HALIDE TRANSFERASE” (priority 2007, published 2011).

Legend:
[1] = molecular target: methyl halide transferase (Batis maritima, UniProt Q9ZSZ7); conditions: halide ion as substrate; Attieh et al. 1995, Ni and Hager 1999; cited from earlier work
S. cerevisiae W303a = assay: Methyl iodide toxicity assay in yeast; format: cell-based, Saccharomyces cerevisiae; conditions: OD600 at 24 hours of growth, commercially available CH3I added
Source text: (§1) FIG. 11A-D: Methyl iodide production in recombinant S. cerevisiae. FIG. 11A. CH3I production pathway. The B. maritima MHT is expressed with a N-terminal vacuole targeting tag. The […] MHT methylates iodide ions using SAM as a methyl donor. FIG. 11B, CH3I measured in culture headspace over time. Activity on glucose-grown cells is shown. FIG. 11C, CH3I yields in grams per liter of culture per day. Values for the culturable red algae E. muricata are taken from the literature. Yields from B. maritima MHT-expressing E. coli and S. cerevisiae are calculated by comparison to standard curves. FIG. 11D, CH3I toxicity in yeast. Exponential phase cultures were diluted to an OD600 of 0.05 and commercially available CH3I was added. OD600 was measured at 24 hours of growth. The W303a lab strain is shown in filled boxes, the DNA methylation-sensitive RAD50Δ mutant is shown in open boxes.
(§2) Individual colonies were inoculated in YP media with 2% glucose and grown overnight. Cultures were diluted to an OD600 of 0.05 and methyl iodide was added to the specified amount. […] OD600 was measured by spectrometry with YP media used as a blank. Each data point was performed in triplicate. The RAD50Δ mutant was obtained from the Saccharomyces Genome Deletion Project (Invitrogen).

RAD50Δ mutant = format: cell-based, Saccharomyces cerevisiae; conditions: RAD50Δ mutant compared with W303a
Source text: as §1, §2

Sequence of methyl halide transferase (Q9ZSZ7 1-230): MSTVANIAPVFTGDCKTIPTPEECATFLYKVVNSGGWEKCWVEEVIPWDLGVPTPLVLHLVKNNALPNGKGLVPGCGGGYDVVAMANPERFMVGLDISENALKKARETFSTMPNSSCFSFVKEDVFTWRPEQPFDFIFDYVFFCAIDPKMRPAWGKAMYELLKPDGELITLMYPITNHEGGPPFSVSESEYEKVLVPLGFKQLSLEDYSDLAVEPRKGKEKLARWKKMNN

For `I` [I^−, iodide], the Km [1] is given as 8.5 mM.
With `CI` [methyl iodide] the “level up to which yeast were resistant to deleterious methylating effects of methyl iodide” value (S. cerevisiae W303a) was over 5000 µg/mL and the “sensitivity to methyl iodide” value (RAD50Δ mutant) was “increased sensitivity”.
For `[Br-].[K+]` [Br^−, bromide], the Km [1] is given as 18.5 mM.
